Experimental data published in patent publication EP0145493A2, “11-Difluoromethyl and 11-fluoromethylene steroids” (THE UPJOHN COMPANY, priority 1983, dated 1985).

Target: T1, progesterone receptor (Oryctolagus cuniculus, UniProt P06186)
T1 construct: 'Rabbit, progesterone = 100%; from tissue; host or cells: Rabbit; From own knowledge, the cited Philibert procedure uses uterine cytosol
T1 sequence (P06186 1-930): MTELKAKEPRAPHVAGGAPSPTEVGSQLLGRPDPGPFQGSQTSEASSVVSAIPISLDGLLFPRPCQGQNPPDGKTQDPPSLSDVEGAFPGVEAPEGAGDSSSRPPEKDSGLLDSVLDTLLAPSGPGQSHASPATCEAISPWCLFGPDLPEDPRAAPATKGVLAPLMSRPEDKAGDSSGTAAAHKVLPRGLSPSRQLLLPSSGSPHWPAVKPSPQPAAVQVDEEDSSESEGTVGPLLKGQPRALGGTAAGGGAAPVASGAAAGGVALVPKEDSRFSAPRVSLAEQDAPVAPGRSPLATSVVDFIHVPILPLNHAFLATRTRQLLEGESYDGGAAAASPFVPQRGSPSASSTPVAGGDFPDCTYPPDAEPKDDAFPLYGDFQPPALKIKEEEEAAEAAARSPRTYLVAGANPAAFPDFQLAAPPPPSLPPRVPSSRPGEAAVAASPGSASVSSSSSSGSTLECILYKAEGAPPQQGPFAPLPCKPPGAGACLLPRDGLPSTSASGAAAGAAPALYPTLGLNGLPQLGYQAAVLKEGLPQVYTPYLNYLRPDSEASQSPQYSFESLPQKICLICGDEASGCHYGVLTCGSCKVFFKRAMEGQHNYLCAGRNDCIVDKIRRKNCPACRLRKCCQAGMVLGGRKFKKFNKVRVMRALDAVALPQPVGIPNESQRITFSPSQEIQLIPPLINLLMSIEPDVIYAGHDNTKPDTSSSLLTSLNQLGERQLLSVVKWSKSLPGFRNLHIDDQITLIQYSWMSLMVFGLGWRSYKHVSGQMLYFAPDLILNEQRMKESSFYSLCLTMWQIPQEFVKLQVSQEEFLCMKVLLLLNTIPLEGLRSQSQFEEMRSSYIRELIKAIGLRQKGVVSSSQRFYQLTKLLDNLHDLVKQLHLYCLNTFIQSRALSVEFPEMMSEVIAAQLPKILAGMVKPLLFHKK
Assay: progesterone receptor relative binding affinity (procedure of Philibert et al.)
Conditions: Rabbit, progesterone = 100%
Text: Biological information in the form of progesterone receptor relative binding affinity data determined according to the procedure of D. Philibert et al, Endocrinology 101, 1850 (1977) set forth in TABLE 1 discloses the 11β-difluoromethyl and (E)-11-fluoromethylene steroids to be useful as progestins.
'Rabbit, progesterone = 100%

Compound | Relative Binding Affinity' (%)
C#C[C@]1(O)CC[C@H]2[C@H]3[C@H]([C@@H](C(F)F)C[C@@]21C)[C@H]1CCC(=O)C=C1C[C@H]3C [17α-Ethynyl-11β-difluoromethyl-17β-hydroxy-7α-methylestr-4-en-3-one] | 63
CO[C@H]1CC[C@H]2[C@@H]3CCC4=CC(=O)CC[C@@H]4[C@H]3[C@@H](C(F)F)C[C@]12C [11β-Difluoromethyl-17β-hydroxyestr-4-en-3-one 17-methyl ether] | 66
C#CC1(OC)CCC2C3CCC4=CC(=O)CCC4C3C(C(F)F)CC21C (stereo not drawn) [17α-Ethynyl-11β-difluoromethyl-17β-hydroxyestr-4-en-3-one 17-methyl ether] | 145
C[C@]12C[C@H](C(F)F)[C@H]3[C@@H](CCC4=CC(=O)CC[C@@H]43)[C@@H]1CC[C@@H]2O [11β-Difluoromethyl-17β-hydroxyestr-4-en-3-one] | 13
CC#C[C@]1(O)CC[C@H]2[C@@H]3CCC4=CC(=O)CC[C@@H]4[C@H]3/C(=C\F)C[C@@]21CC [13β-Ethyl-(Z)-11-fluoromethylene-17β-hydroxy-17α-propynylgon-4-en-3-one] | 149
CC#C[C@]1(O)CC[C@H]2[C@@H]3CCC4=CC(=O)CC[C@@H]4[C@H]3/C(=C/F)C[C@@]21CC [13β-Ethyl-(E)-11-fluoromethylene-17β-hydroxy-17α-propynylgon-4-en-3-one] | 63
CC#CC1(OC)CCC2C3CCC4=CC(=O)CCC4C3C(=CF)CC21C (stereo not drawn) [(E)-11-Fluoromethylene-17β-hydroxy-17α-propynylestr-4-en-3-one 17-methyl ether] | 71
CC#C[C@]1(O)CC[C@H]2[C@@H]3CCC4=CCCC[C@@H]4[C@H]3[C@@H](C(F)F)C[C@@]21C [11β-Difluoromethyl-17β-hydroxy-17α-propynylestr-4-ene] | 3
CC#C[C@]1(O)CC[C@H]2[C@@H]3CCC4C=CCC[C@@H]4[C@H]3[C@@H](C(F)F)C[C@@]21C (stereo partly drawn) [11β-Difluoromethyl-17β-hydroxy-17α-propynylestr-3-ene] | 2
C#C[C@]1(O)CC[C@H]2[C@H]3[C@H](/C(=C/F)C[C@@]21C)[C@H]1CCC(=O)C=C1C[C@H]3C [17α-Ethynyl-(E)-11-fluoromethylene-17β-hydroxy-7α-methylestr-4-en-3-one] | 34
CC#CC1(OC(C)=O)CCC2C3CCC4=CC(=O)CCC4C3C(C(F)F)CC21C (stereo not drawn) [11β-Difluoromethyl-17β-hydroxy-17α-propynylestr-4-en-3-one 17-acetate] | 49
CC#C[C@]1(O)CC[C@H]2[C@@H]3CCC4=CC(=O)CC[C@@H]4[C@H]3[C@@H](C(F)F)C[C@@]21C [11β-Difluoromethyl-17β-hydroxy-17α-propynylestr-4-en-3-one] | 68
CC#CC1(OC)CCC2C3CCC4=CC(=O)CCC4C3C(C(F)F)CC21C (stereo not drawn) [11β-Difluoromethyl-17β-hydroxy-17α-propynylestr-4-en-3-one 17-methyl ether] | 90
C#C[C@]1(O)CC[C@H]2[C@@H]3CCC4=CC(=O)CC[C@@H]4[C@H]3/C(=C/F)C[C@@]21CC [13β-Ethyl-17α-ethynyl-(E)-11-fluoromethylene-17β-hydroxygon-4-en-3-one] | 100
C#CC1(O)CCC2C3CCC4=CC5(CCC4C3C(C(F)F)CC21C)SCCS5 (stereo not drawn) [17α-Ethynyl-11β-difluoromethyl-17β-hydroxyestr-4-ene-3-one 3-ethanedithiol ketal] | 92
CC#C[C@]1(O)CC[C@H]2[C@H]3[C@H]([C@@H](C(F)F)C[C@@]21C)[C@H]1CCC(=O)C=C1C[C@H]3C [11β-Difluoromethyl-17β-hydroxy-7α-methyl-17α-propynylestr-4-en-3-one] | 41
C#CC1(OC(C)=O)CCC2C3CCC4=CC(=O)CCC4C3C(C(F)F)CC21C (stereo not drawn) [17α-Ethynyl-11β-difluoromethyl-17β-hydroxyestr-4-en-3-one 17-acetate] | 50
CC#C[C@]1(O)CC[C@H]2[C@H]3[C@H](/C(=C/F)C[C@@]21C)[C@H]1CCC(=O)C=C1C[C@H]3C [(E)-11-Fluoromethylene-17β-hydroxy-7α-methyl-17α-propynylestr-4-en-3-one] | 58
C#C[C@]1(O)CC[C@H]2[C@@H]3CCC4=CC(=O)CC[C@@H]4[C@H]3/C(=C\F)C[C@@]21C [17α-Ethynyl-(Z)-11-fluoromethylene-17β-hydroxyestr-4-en-3-one] | 149
CC#C[C@]1(O)CC[C@H]2[C@@H]3CCC4=CC(=O)CC[C@@H]4[C@H]3/C(=C\F)C[C@@]21C [(Z)-11-Fluoromethylene-17β-hydroxy-17-propynylestr-4-en-3-one] | 150
CC#C[C@]1(O)CC[C@H]2[C@@H]3CCC4=CC(=O)CC[C@@H]4[C@H]3/C(=C/F)C[C@@]21C [(E)-11-fluoromethylene-17β-hydroxy-17α-propynylestr-4-ene-3-one] | 18
C#C[C@]1(O)CC[C@H]2[C@@H]3CCC4=CCCC[C@@H]4[C@H]3[C@@H](C(F)F)C[C@@]21C [17α-Ethynyl-11β-difluoromethyl-17β-hydroxyestr-4-ene] | 2
C#C[C@]1(O)CC[C@H]2[C@@H]3CCC4=CC(=O)CC[C@@H]4[C@H]3/C(=C/F)C[C@@]21C [17α-Ethynyl-(E)-11-fluoromethylene-17β-hydroxyestr-4-en-3-one] | 74
